Measurements from ChEMBL document CHEMBL1124285, “Conformational analysis and structural comparisons of (1R,3S)-(+)- and (1S,3R)-(-)-tefludazine, (S)-(+)- and (R)-(-)-octoclothepin, and (+)-dexclamol in relation to dopamine receptor antagonism and amine-uptake inhibition” (J Med Chem, 1988).

Experiments:
D(2) dopamine receptor = D(2) dopamine receptor (Rattus norvegicus, UniProt P61169); experiment: Binding affinity against Dopamine receptor D2 using [3H]spiroperidol
Rattus norvegicus [1] = organism: Rattus norvegicus; experiment: Inhibition of [3H]norepinephrine uptake in rat brain synaptosomes; assay type: functional, organism-based
Rattus norvegicus [2] = organism: Rattus norvegicus; experiment: Inhibition of [3H]-dopamine uptake in rat brain synaptosomes; assay type: functional, organism-based

Chain of D(2) dopamine receptor (P61169 whole entry): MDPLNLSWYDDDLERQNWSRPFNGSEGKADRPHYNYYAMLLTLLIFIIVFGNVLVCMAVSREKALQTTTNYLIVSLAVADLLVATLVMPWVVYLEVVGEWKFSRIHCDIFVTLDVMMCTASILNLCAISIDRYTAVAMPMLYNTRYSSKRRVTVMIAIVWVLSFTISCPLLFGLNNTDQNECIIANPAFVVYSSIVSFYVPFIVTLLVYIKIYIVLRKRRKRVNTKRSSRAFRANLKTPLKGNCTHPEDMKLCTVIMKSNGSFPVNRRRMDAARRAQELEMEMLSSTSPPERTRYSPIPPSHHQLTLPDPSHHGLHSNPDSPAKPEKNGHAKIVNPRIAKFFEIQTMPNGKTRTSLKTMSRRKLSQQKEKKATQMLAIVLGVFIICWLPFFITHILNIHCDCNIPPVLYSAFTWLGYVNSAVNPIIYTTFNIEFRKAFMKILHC

| Compound | IC50 (D(2) dopamine receptor) [nM] | IC50 (Rattus norvegicus [1]; Rattus norvegicus, Brain, 3 h) [µM] | IC50 (Rattus norvegicus [2]; Rattus norvegicus, Brain, 3 h) [µM] | IC50 (Rattus norvegicus [1]) [µM] | IC50 (Rattus norvegicus [2]) [µM] |
| --- | --- | --- | --- | --- | --- |
| CC(C)[C@]1(O)CCN2C[C@H]3c4ccccc4CCc4cccc(c43)[C@@H]2C1 | 6 | – | – | – | – |
| OCCN1CCN([C@H]2C[C@H](c3ccc(F)cc3)c3ccc(C(F)(F)F)cc32)CC1 | 590 | 0.73 | 0.13 | – | – |
| CN1CCN(C2Cc3ccccc3Sc3ccc(Cl)cc32)CC1 (racemic) [CLOROTEPINE] | – | 0.00064 | 6.3 | – | – |
| CC(C)[C@@]1(O)CCN2C[C@@H]3c4ccccc4CCc4cccc(c43)[C@H]2C1 [DEXCLAMOL] | 900 | – | – | – | – |
| OCCN1CCN([C@@H]2C[C@@H](c3ccc(F)cc3)c3ccc(C(F)(F)F)cc32)CC1 [TEFLUDAZINE] | 14 | 15 | 2.2 | – | – |
| (-)-BUTACLAMOL | – | – | – | 7.4 | 9.5 |
